{"source": "PubChem BioAssay AID743298", "about": "(Broad Institute, 2014)", "note": "Several values for one entry are separate records, joined by “and”; a condition that tells them apart may be missing. Equal values may be shown once. Activity calls are given as the source filed them.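 The calls were made as follows: active = fitted AC50 at or below twice the top valid dose for that sample, signal falling; inconclusive = flat curve at 30 to 70 percent inhibition, or bad fit; inactive = the rest.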"}
{"test_system": "not listed separately", "experiment": "cell lysis of Cryptococcus neoformans, alamar blue – dry powder, set 3, mechanism study for C. neoformans antifungal project, dose response (AID 743298)", "details": "C. neoformans growth, alamar blue, 24 h; at 35 µM (top of the series)"}
{"smiles": "CC(C)c1ccccc1NCCn1c(=S)[nH]c2ccccc21", "activity change, negative = inhibition": "34.7% (inactive)"}
{"smiles": "c1ccc(OCCn2cnc3ccccc32)cc1", "activity change, negative = inhibition": "30.3% (inactive)"}
{"smiles": "Cc1ccc(OCCn2c(=S)[nH]c3ccccc32)c(C)c1", "activity change, negative = inhibition": "12.9% (inactive)"}
{"smiles": "Cc1ccc(C(C)C)c(OCCn2c(=S)[nH]c3ccc(Cl)cc32)c1", "activity change, negative = inhibition": "30.7% (inactive)"}
{"smiles": "S=c1[nH]c2cc(Cl)ccc2n1CCOc1ccccc1", "activity change, negative = inhibition": "39.6% (inactive)"}
{"smiles": "Cc1cccc(OCCn2c(=S)[nH]c3ccc(C(F)(F)F)cc32)c1", "activity change, negative = inhibition": "39.4% (inactive)"}
{"smiles": "Cc1ccc(C(C)C)c(OCCn2c(=S)[nH]c3c(C)cccc32)c1", "activity change, negative = inhibition": "59.5% (inactive)"}
{"smiles": "Cc1ccc(C(C)C)c(OCCn2c(=S)[nH]c3cc(F)ccc32)c1", "activity change, negative = inhibition": "55% (inactive)"}
{"smiles": "Cc1ccc(C(C)C)c(OCCn2c(=S)[nH]c3c(F)cccc32)c1", "activity change, negative = inhibition": "16% (inactive)"}
{"smiles": "COc1ccccc1OCCn1c(=S)[nH]c2ccccc21", "activity change, negative = inhibition": "-19.4% (inactive)"}
{"smiles": "Cc1ccc(C(C)C)c(OCCn2c(=S)[nH]c3cccc(C)c32)c1", "activity change, negative = inhibition": "35.3% (inactive)"}
{"smiles": "Cc1cccc(OCCn2c(=S)[nH]c3cc(C(F)(F)F)ccc32)c1", "activity change, negative = inhibition": "19% (inactive)"}
{"smiles": "Cc1ccc(C(C)C)c(OCCn2c(=S)[nH]c3c(Cl)cccc32)c1", "activity change, negative = inhibition": "-22.6% (inactive)"}
{"smiles": "Cc1ccc(C(C)C)c(OCCn2c(=S)[nH]c3ccc(F)cc32)c1", "activity change, negative = inhibition": "44.9% (inactive)"}
{"smiles": "Cc1cccc(OCCn2c(=S)[nH]c3c(F)cccc32)c1", "activity change, negative = inhibition": "-5.91% (inactive) and -16.2% (inactive)"}
{"smiles": "CSc1nc2ccccc2n1CCOc1cc(C)ccc1C(C)C", "activity change, negative = inhibition": "-25.9% (inactive)"}
{"smiles": "Cc1ccc(C(C)C)c(OCCn2c(CO)nc3ccccc32)c1", "activity change, negative = inhibition": "8.72% (inactive)"}
{"smiles": "Cc1cccc(OCCn2c(=S)[nH]c3ccccc32)c1C", "activity change, negative = inhibition": "51.8% (inactive)"}
{"smiles": "COCc1nc2ccccc2n1CCOc1ccc(C(C)(C)C)cc1", "activity change, negative = inhibition": "5.49% (inactive)"}
{"smiles": "Cc1ccc(C)c(OCCn2c(=S)[nH]c3ccccc32)c1", "activity change, negative = inhibition": "26.6% (inactive)"}
{"test_system": "C. neoformans growth, alamar blue, 24 h", "experiment": "cell lysis of Cryptococcus neoformans, alamar blue – dry powder, set 3, mechanism study for C. neoformans antifungal project, dose response (AID 743298)", "details": "not given"}
{"smiles": "Cc1cccc(OCCn2c(=S)[nH]c3ccccc32)c1", "AC50": "21.1 µM"}
{"smiles": "S=c1[nH]c2cccc(Cl)c2n1CCOc1ccccc1", "AC50": "6.34 µM and 6.02 µM"}
{"smiles": "Cc1ccc(OCCn2c(C)nc3ccccc32)cc1", "AC50": "21.9 µM"}
{"smiles": "S=c1[nH]c2ccccc2n1CCOc1ccc(Cl)cc1", "AC50": "6.01 µM"}
{"smiles": "COc1cccc(OCCn2c(=S)[nH]c3ccccc32)c1", "AC50": "28.8 µM"}
{"smiles": "S=c1[nH]c2ccccc2n1CCOc1ccccc1", "AC50": "24.4 µM"}
{"smiles": "CC(C)(C)c1ccccc1OCCn1c(=S)[nH]c2ccccc21", "AC50": "11.2 µM"}
{"smiles": "CC(C)(C)c1ccc(OCCn2c(=S)[nH]c3ccccc32)cc1", "AC50": "7.11 µM"}
{"smiles": "Cc1ccc(C(C)C)c(OCCn2c(=S)[nH]c3cccc(F)c32)c1", "AC50": "13.9 µM"}
{"smiles": "Cc1ccc(C(C)C)c(OCCn2c(=S)[nH]c3cccc(Cl)c32)c1", "AC50": "9.67 µM"}
{"smiles": "Cc1cccc2[nH]c(=S)n(CCOc3ccccc3)c12", "AC50": "15.1 µM"}
{"smiles": "Cc1ccc2c(c1)[nH]c(=S)n2CCOc1ccccc1", "AC50": "12.2 µM and 12.4 µM"}
{"smiles": "Cc1ccc(C(C)C)c(OCCn2c(=S)[nH]c3ccccc32)c1", "AC50": "9.65 µM and 9.22 µM"}
{"smiles": "Cc1ccccc1OCCn1c(=S)[nH]c2ccccc21", "AC50": "> 70 µM (inactive)"}
{"smiles": "Fc1ccccc1OCCn1c(=S)[nH]c2ccccc21", "AC50": "23 µM"}
{"smiles": "CC(C)(C)c1ccc(OCCn2cnc3ccccc32)cc1", "AC50": "17.5 µM"}
{"smiles": "Cc1ccc(OCCn2c(=S)[nH]c3ccccc32)c(C(C)C)c1", "AC50": "12.3 µM and 10.4 µM"}
{"smiles": "Fc1cccc2c1[nH]c(=S)n2CCOc1ccccc1", "AC50": "20 µM and 22.2 µM"}
{"smiles": "COc1ccc(OCCn2c(=S)[nH]c3ccccc32)cc1", "AC50": "30.3 µM"}
{"smiles": "CCOc1ccc(OCCn2c(=S)[nH]c3ccccc32)cc1", "AC50": "12.3 µM"}
{"smiles": "Fc1cccc(OCCn2c(=S)[nH]c3ccccc32)c1", "AC50": "25.6 µM"}
{"smiles": "Cc1cccc(OCCn2c(=S)[nH]c3cc(F)ccc32)c1", "AC50": "12.1 µM and 11.7 µM"}
{"smiles": "Cc1ccc(OCCn2c(=S)[nH]c3ccccc32)cc1", "AC50": "5.63 µM"}
{"smiles": "Fc1ccc2[nH]c(=S)n(CCOc3ccccc3)c2c1", "AC50": "25.2 µM"}
{"smiles": "Cc1ccc(OCCn2cnc3ccccc32)cc1", "AC50": "12 µM"}
{"smiles": "S=c1[nH]c2ccccc2n1CCOc1ccccc1Cl", "AC50": "34 µM"}
{"smiles": "Fc1ccc2c(c1)[nH]c(=S)n2CCOc1ccccc1", "AC50": "27.5 µM and 26.8 µM"}
{"smiles": "Cc1ccc(OCCn2c(SCCO)nc3ccccc32)c(C(C)C)c1", "AC50": "26 µM"}
{"smiles": "O=c1[nH]c2ccccc2n1CCOc1ccccc1", "AC50": "34 µM"}
{"smiles": "CC(C)c1ccccc1OCCn1c(=S)[nH]c2ccccc21", "AC50": "20.1 µM"}
{"smiles": "CC(C)c1ccc(OCCn2c(=S)[nH]c3ccccc32)cc1", "AC50": "5.77 µM"}
{"smiles": "Cc1ccc(OCCn2cnc3ccccc32)c(C(C)C)c1", "AC50": "> 70 µM (inactive)"}
